Here are results for one molecule from patent US8722070B2, “Active compound combinations having insecticidal and acaricidal properties” (Bayer CropScience AG, priority 2000, dated 2014).

For experiment [1], the system named is peach aphid (Myzus persicae). Briefly: Myzus test (cabbage leaves dipped into the preparation of active compound). Format: in vivo. The following applies: individual active compound, 1.6 ppm, cabbage leaves (Brassica oleracea). An excerpt: (§1) The expected action for a given combination of two active compounds can be calculated as follows, using the formula of S. R. Colby, Weeds 15 (1967), 20-22):
(§2) • X is the kill rate, expressed as a percentage of the untreated control, when employing active compound A at an application rate of m g/ha or in a concentration of m ppm, • Y is the kilt rate, expressed as a percentage of the untreated control, when employing active compound B at an application rate of n g/ha or in a concentration of n ppm and • E is the kill rate, expressed as a percentage of the untreated control, when employing active compounds A and B at application rates of m and n g/ha or in a concentration of m and n ppm, then
(§3) If the actual insecticidal kill rate exceeds the calculated value, the action of the combination is superadditive, i.e. a synergistic effect is present. In this case, the actually observed kill rate must exceed the value calculated using the above formula for the expected kill rate (E).
(§4) After the desired period of time, the kill rate in % is determined. 100% means that all the animals have been killed; 0% means that none of the animals has been killed.
(§5) Solvent: 3 parts by weight of dimethylformamide
(§6) Emulsifier: 1 part by weight of alkylaryl polyglycol ether […]
After the desired period of time, the kill in % is determined. […] The kill rates determined are calculated using Colby's formula.

Experiment [2] has as its system cotton aphid (Aphis gossypii). Briefly: Aphis gossypii test (cotton leaves dipped into the preparation of active compound). Format: in vivo. The following applies: individual active compound, 1.6 ppm, cotton leaves (Gossypium hirsutum).
Source text: as §1, §2, §3, §4, §5, §6
After the desired period of time, the kill in % is determined. […] The kill rates that are determined are calculated using Colby formula.

As for `CC1(C)C(C=C(Cl)Cl)C1C(=O)OC(C#N)c1ccc(F)c(Oc2ccccc2)c1` (centres unmarked) [cyfluthrin, Cyfluthrin], in experiment [1], the “Kill rates in % after 1d” value amounted to 25%. Moreover, the “Kill rates in % after 6d” value in experiment [2] stood at 75%.
